In ChEMBL document CHEMBL1145672, “Isolation and identification of trachyloban-19-oic and (-)-kaur-16-en-19-oic acids as antimicrobial agents from the prairie sunflower, Helianthus annuus” (1983) one finds MIC and Activity data, which are given here for four compounds.

Values after ≈ are worked out from the molar mass of the structure shown. Active and inactive are the calls of the source. The calls are words filed in the database; no cut-off is given here.

Experiment [1] relates to Staphylococcus aureus. Description: Antimicrobial activity against Staphylococcus aureus ATCC 13709 by agar-dilution streak method. It is filed as functional.
The subject of experiment [2] is Mycolicibacterium smegmatis. Description: Antimicrobial activity against Mycobacterium smegmatis ATCC 607 by agar-dilution streak method. In kind it is functional.
Experiment [3] concerns Escherichia coli. Put plainly: Antimicrobial activity against Escherichia coli ATCC 9637 at 100 ug/mL by agar-dilution streak method. In kind it is functional, organism-based.
In experiment [4] the test system is Salmonella enterica subsp. enterica serovar Gallinarum. Put plainly: Antimicrobial activity against Salmonella gallinarum ATCC 9184 at 100 ug/mL by agar-dilution streak method. It is filed as functional, organism-based.
The subject of experiment [5] is Klebsiella pneumoniae. Description: Antimicrobial activity against Klebsiella pneumoniae ATCC 10031 at 100 ug/mL by agar-dilution streak method. It is filed as functional, organism-based.
Another experiment has as its system Candida albicans. Put plainly: Antimicrobial activity against Candida albicans ATCC 10231at 100 ug/mL by agar-dilution streak method. It is filed as functional, organism-based.
For experiment [6], the system named is Staphylococcus aureus. Put plainly: Antimicrobial activity against Staphylococcus aureus ATCC 13709 at 100 ug/mL by agar-dilution streak method. In kind it is functional, organism-based.
For experiment [7], the system named is Escherichia coli. Description: Antimicrobial activity against Escherichia coli ATCC 9637 by agar-dilution streak method. It is filed as functional.
For experiment [8], the system named is Salmonella enterica subsp. enterica serovar Gallinarum. Put plainly: Antimicrobial activity against Salmonella gallinarum ATCC 9184 by agar-dilution streak method. It is filed as functional.
Experiment [9] deals with Klebsiella pneumoniae. Put plainly: Antimicrobial activity against Klebsiella pneumoniae ATCC 10031 by agar-dilution streak method. It is filed as functional.

Regarding `C=C1C[C@@]23CC[C@H]4[C@@](C)(CCC[C@]4(C)C(=O)O)[C@@H]2CCC1C3`, the minimal inhibitory concentration (MIC) in the experiment on Staphylococcus aureus [1] amounted to 12.5 µg/mL (≈ 41.3 µM); in experiment [2] it was 6.25 µg/mL (≈ 20.7 µM). Moreover, the outcome (with Escherichia coli [3]; in experiment [4]; in the experiment with Klebsiella pneumoniae [5]; with Candida albicans) was inactive.

As to `C[C@@]12C[C@@]34CC[C@H]5[C@@](C)(CCC[C@]5(C)C(=O)O)[C@@H]3C[C@H]1[C@H]2C4`, the MIC (with Staphylococcus aureus [1]; in experiment [2]) was 6.25 µg/mL (≈ 20.7 µM) throughout. In addition, the result (with Escherichia coli [3]; in experiment [4]; in the experiment on Klebsiella pneumoniae [5]; with Candida albicans) was inactive.

With `C=C1C[C@@]23CC[C@H]4[C@@](C)(CCC[C@@]4(C)C(=O)OC)[C@@H]2CC[C@@H]1C3` [KAURENOIC ACID METHYL ESTER], the MIC in experiment [2] came out at 25 µg/mL (≈ 79 µM). In addition, the outcome (in the experiment on Staphylococcus aureus [6]; in the experiment on Escherichia coli [3]; in [4]; in the experiment with Klebsiella pneumoniae [5]; in the experiment on Candida albicans) was inactive.

Regarding `CN[C@@H]1[C@H](O[C@H]2[C@H](O[C@H]3[C@H](O)[C@@H](O)[C@H](N=C(N)N)[C@@H](O)[C@@H]3N=C(N)N)O[C@@H](C)[C@]2(O)C=O)O[C@@H](CO)[C@H](O)[C@H]1O` [STREPTOMYCIN], the MIC with Staphylococcus aureus [1] was 3.1 µg/mL (≈ 5.33 µM); in the experiment with Escherichia coli [7], 12.5 µg/mL (≈ 21.5 µM); in [8], 25 µg/mL (≈ 43 µM); with Klebsiella pneumoniae [9], 1.56 µg/mL (≈ 2.68 µM); in [2], 0.78 µg/mL (≈ 1.34 µM). For the same compound, in the experiment with Candida albicans, the outcome was inactive.

For orientation: MIC means the lowest concentration that inhibits growth of the organism. Read a high MIC as a less susceptible organism.
